Read-outs that look alike come from different tables or passages of the source.
Key:
[1] = Pharmacokinetics in ADHD model rats after gavage of JYPs; format: in vivo, SHR rats (ADHD model); conditions: for peak time / half-life: ADHD model rats, oral JYPs; for removed within 12 h: ADHD rats (as printed, in the control-group section); for half-life: male, SHR, plasma
Procedure: Based on the established analytical method for plasma samples, a pharmacokinetic study was conducted on 13 constituents in the plasma of ADHD model rats after gavage of JYPs (Figure 3). The linearity of ln(AUC0-t)–ln(dose) and ln(Cmax)–ln(dose) was analyzed in the same way.
(§1) For the control experiment, healthy male Sprague Dawley (SD) rats of SPF grade ([…] ± 20 g) were purchased from Sipeifu (Beijing) Biotechnology Co., Ltd. (Beijing, China), Animal Quality Certificate No. 110324220102348616. For the ADHD model rats, healthy male SHR rats of SPF grade, weighing 220 ± 20 g, were purchased from SBF (Beijing) Biotechnology Co., Ltd. (Beijing, China), License No. SCXK (Yu) 2019-0010. The animals were accommodated in the Animal Center of Henan University of Traditional Chinese Medicine, which successfully underwent an ethical audit with ethics number DWLL202208003. The animals were bred under controlled conditions at a temperature of 24 °C and a relative humidity of 50 ± 2%. Before the experiment, the animals abstained from eating for 12 h and had unrestricted access to water. The feeding and experimental research conducted on the experimental animals adhered to the laws outlined in the Management of Experimental Animals in Henan Province.
(§2) JYPs were ground into a fine powder and sieved through 60-mesh sieves; then, 20 g of fine JYP powder was taken, having been weighed precisely. A precise volume of 50 mL of pure water was added and mixed well to prepare a 0.4 g/mL suspension solution of JYPs, which was then stored in the refrigerator at 4 °C.
(§3) This study involved 24 healthy male SD rats with a body mass of 220 ± 20 g and 24 healthy male ADHD rats with a body mass of 220 ± 20 g. Subjects abstained from food for a duration of 12 h before the experiment and consumed water without restriction. Both kinds of rats were randomly divided into four groups: a blank group, given an equal dose of water intragastrically, and 3 different administration groups: rats given the equivalent human dose of JYPs by gavage in doses of 1.080 g/kg/d, 2.160 g/kg/d, and 4.320 g/kg/d. Tail vein blood was collected at 0.083, 0.25, 0.5, 0.75, 1, 1.5, 2, 3, 4, 6, 8, 12, 18, and 24 h after dosing. About 0.5 mL of blood was collected in sodium heparin centrifugal tubes, then centrifuged at 4 °C for 10 min at a speed of 3500r/min. We took the upper layer and placed it at −80 °C for preservation.
(§4) We took 200 μL of plasma, added 600 μL of methanol solution and 50 μL of internal standard (100 ng/mL), and subjected it to shaking for 5 min, followed by centrifugation at 4 °C at 12,000 r/min for 10 min. The supernatant was collected and allowed to dry, then reconstituted with 50 μL of 50% methanol and centrifuged at 4 °C at 14,000 r/min for a further 10 min. The supernatant after this process was taken as the test solution. A volume of 5 μL was used for UPLC-MS analysis. The drug concentration in plasma was calculated with the aid of the internal standard.
Chromatographic conditions: Hypersil GOLD (100 × 2.1 mm, 1.9 μm) column; column temperature 35 °C; mobile phase acetonitrile (A)/0.1% formic acid aqueous solution (B); gradient elution; gradient elution program: 0–0.5 min (95% B–95% B), 0.5–8 min (95% B–50% B), 8–14 min (50% B–20% B), 14–20 min (20% B–5% B), 20–22 min (5% B–5% B), 22–25 min (95% B–95% B); flow rate 0.2 mL/min; injection volume 5 μL. The ion source was electrospray ionization (ESI), with positive and negative ion mode spray voltages of 3.50 and 3.0 kV, an ion transfer tube temperature of 300 °C, nitrogen as the carrier gas, a sheath gas pressure of 35 arb, an auxiliary gas pressure of 8 arb, and an auxiliary heater temperature of 275 °C.

[2] = Pharmacokinetics in control rats after gavage of JYPs; format: in vivo, Sprague Dawley (SD) rats; conditions: for half-life / Tmax / AUC(0-inf) / AUC(0-t) / Cmax / MRT last / MRT inf: male, rat, plasma; for Tmax: po; for MRT last: read-out: MRT(0-t); for MRT inf: read-out: MRT(0-∞)
From the text: According to the established method for the analysis of serum biological samples, the pharmacokinetics of various components of rat serum were investigated after the administration of different dosages of JYPs to control rats.
as §1, §2, §3, §4
Chromatographic conditions: Hypersil GOLD (100 × 2.1 mm, 1.9 μm) column; column temperature 35 °C; mobile phase acetonitrile (A)/0.1% formic acid aqueous solution (B); gradient elution; gradient elution program: 0–0.5 min (95% B–95% B), 0.5–8 min (95% B–50% B), 8–14 min (50% B–20% B), 14–20 min (20% B–5% B), 20–22 min (5% B–5% B), 22–25 min (95% B–95% B); flow rate 0.2 mL/min; injection volume 5 μL.

[3] = Sprague Dawley, oral JYPs, range over compounds and doses, read-out: half-life (t1/2)
[4] = Sprague Dawley, oral JYPs, read-out: peak time (Tmax)
[5] = Sprague-Dawley, 1.08 g/kg/day, oral JYPs low dose 1.080 g/kg/d (1st of 3 values)
[6] = Sprague-Dawley, 2.16 g/kg/day, oral JYPs medium dose 2.160 g/kg/d (2nd of 3 values)
[7] = Sprague-Dawley, 4.32 g/kg/day, oral JYPs high dose 4.320 g/kg/d (3rd of 3 values)
[8] = oral JYPs high dose 4.320 g/kg/d (3rd of 3 values)
[9] = oral JYPs low dose 1.080 g/kg/d (1st of 3 values)
[10] = oral JYPs medium dose 2.160 g/kg/d (2nd of 3 values)

For `CC12CC(O)C3CC1(OC1OC(CO)C(O)C(O)C1O)C3(COC(=O)c1ccccc1)C(=O)O2` (stereo not shown) [Albiflorin], the peak time [1] was “less than 1 h”, the “removed within 12 h” value [1] was “approximately 80%” and the “Tmax, model rats compared with control rats” value ([1]; high-dose group) was “significantly shorter”. For the same molecule, the “Cmax, model rats compared with control rats” value ([1]; middle- and high-dose administration groups) was “significantly greater”.

`COc1cc(/C=C/C(=O)O)ccc1O` [Ferulic acid] showed a half-life [2, 3] of 9.53 to 16.8 h and a Tmax [2, 4] of under 1 h.

Molecule `CCCC=C1OC(=O)C2=C1CCC1C3C=C4C(=O)OC(=CCCC)C4(CC3)C21` (stereo not shown) [Levistilide A] has a half-life [2, 3] of 14.4 to 24 h, a Tmax [2, 4] of under 2 h and an AUC(0-inf) [2, 5] of 25.2 ± 7.16 ng·h/mL. It also gave an AUC(0-t) [2, 5] of 12.9 ± 4.96 ng·h/mL, a Cmax [2, 5] of 1.79 ± 0.66 ng/mL and an MRT last [2, 5] of 9.51 ± 1.01 h. It also gave an MRT inf [2, 5] of 22.9 ± 7.04 h, a half-life ([2]; Sprague-Dawley, 1.08 g/kg/day, oral JYPs low dose 1.080 g/kg/d (1st of 3 values), read-out: t1/2 (converted)) of 14.4 ± 4.36 h and an AUC(0-inf) [2, 6] of 34.2 ± 5.08 ng·h/mL. It also gave an AUC(0-t) [2, 6] of 21.5 ± 2.97 ng·h/mL, a Cmax [2, 6] of 2.86 ± 0.52 ng/mL and an MRT last [2, 6] of 9.23 ± 0.46 h. The MRT inf [2, 6] was 24.1 ± 8.96 h, the half-life ([2]; Sprague-Dawley, 2.16 g/kg/day, oral JYPs medium dose 2.160 g/kg/d (2nd of 3 values), read-out: t1/2 (converted)) was 16.4 ± 7.3 h and the AUC(0-inf) [2, 7] was 59.8 ± 23.1 ng·h/mL. For the same molecule, the AUC(0-t) [2, 7] was 36.7 ± 11.3 ng·h/mL, the Cmax [2, 7] was 4.6 ± 2.01 ng/mL and the MRT last [2, 7] was 8.92 ± 1.16 h. It also gave an MRT inf [2, 7] of 31.2 ± 38.1 h, a half-life ([2]; Sprague-Dawley, 4.32 g/kg/day, oral JYPs high dose 4.320 g/kg/d (3rd of 3 values), read-out: t1/2 (converted)) of 22.1 ± 26.9 h and a Tmax ([2]; Sprague-Dawley, 1.08 g/kg/day, oral JYPs low dose 1.080 g/kg/d (1st of 3 values), read-out: Tmax) of 1.17 ± 0.41 h. For the same molecule, the Tmax ([2]; Sprague-Dawley, 2.16 g/kg/day, oral JYPs medium dose 2.160 g/kg/d (2nd of 3 values), read-out: Tmax) was 0.92 ± 0.13 h, the Tmax ([2]; Sprague-Dawley, 4.32 g/kg/day, oral JYPs high dose 4.320 g/kg/d (3rd of 3 values), read-out: Tmax) was 1.67 ± 0.52 h and the “AUMC(0-t)” value [2, 8] was 323.93± 97.01 ng/mL*(h)². The “AUMC(0-ꝏ)” value [2, 8] was 2493.49± 4004.18 ng/mL*(h)², the Clearances [2, 8] was 1455.57 ± 663.81 mL/h and the Vss [2, 8] was 33463.62 ± 24837.03 mL. The “AUMC(0-t)” value [2, 9] was 150.01± 45.26 ng/mL*(h)², the “AUMC(0-ꝏ)” value [2, 9] was 584.44± 254.39 ng/mL*(h)² and the Clearances [2, 9] was 794.02 ± 199.77 mL/h. For the same molecule, the Vss [2, 9] was 17878.07 ± 6212.70 mL, the “AUMC(0-t)” value [2, 10] was 197.79±26.58 ng/mL*(h)² and the “AUMC(0-ꝏ)” value [2, 10] was 849.62± 407.65 ng/mL*(h)². The Clearances [2, 10] was 1123.37 ± 161.30 mL/h and the Vss [2, 10] was 26341.48 ± 7666.95 mL.

With `O=C1C[C@@H](c2ccc(O)cc2)Oc2cc(O)ccc21` [Liquiritigenin] the peak time [1] was “less than 1 h”, the “AUC(0-t), ADHD rats compared with control rats” value ([1]; all dosages) was “significantly lower” and the half-life [2, 3] was 9.53 to 16.8 h. The Tmax [2, 4] was under 1 h.

In the case of `O=C1C[C@@H](c2ccc(O[C@@H]3O[C@H](CO)[C@@H](O)[C@H](O)[C@H]3O)cc2)Oc2cc(O)ccc21` [Liquiritin], the peak time [1] is reported as “less than 1 h”, the half-life [2, 3] is reported as 9.53 to 16.8 h and the Tmax [2, 4] is reported as under 1 h.

In the case of `C[C@@]12C[C@@]3(O)O[C@@H](O1)[C@]1(COC(=O)c4ccccc4)[C@H]3C[C@@]12O[C@@H]1O[C@H](CO)[C@@H](O)[C@H](O)[C@H]1O` [Paeoniflorin], the peak time [1] is reported as “less than 1 h”, the “removed within 12 h” value [1] is reported as “approximately 80%” and the Tmax [2, 4] is reported as under 1 h.

For `C=C(CC[C@@H](C(=O)O)[C@H]1[C@H](O)C[C@@]2(C)C3=CC[C@@H](C(=C)C)[C@](C)(CCC(=O)O)C3=CC[C@]12C)C(C)C` [Poricoic acid A], the peak time [1] was “less than 4 h”, the half-life ([1]; rat) was under 10.3 h and the “Cmax, ADHD rats compared with control rats” value ([1]; rat, in vivo) was “significantly higher”. It also gave a half-life [2, 3] of 7.61 to 12.2 h and a Tmax [2, 4] of under 4 h.

In the case of `C=C(C)[C@@H]1CC=C2C(=CC[C@]3(C)[C@@H]([C@@H](CCC=C(C)C)C(=O)O)[C@H](O)C[C@@]23C)[C@@]1(C)CCC(=O)O` [Poricoic acid B], the peak time [1] is reported as “less than 4 h”, the half-life ([1]; rat) is reported as under 10.3 h and the “t1/2, pathological condition compared with control rats” value ([1]; rat, in vivo) is reported as “shorter”. For the same molecule, the half-life [2, 3] was 7.61 to 12.2 h and the Tmax [2, 4] was under 4 h.

From PMC10976160, “Comparative Pharmacokinetics Research of 13 Bioactive Components of Jieyu Pills in Control and Attention Deficit Hyperactivity Disorder Model Rats Based on UPLC-Orbitrap Fusion MS” (Molecules, 2024)
